Reference: patent US20240173333A1, “Treating Alagille Syndrome (ALGS)” (priority 2022, published 2024)

Assays:
[1] = system: patients with Alagille syndrome (ALGS); assay: ASSERT: PedsQL total and domain scores; assay type: in vivo, human
From the text: (§1) […] Additional secondary efficacy endpoints were as follows: • Change from baseline in pruritus to Month 6 (Weeks 21 to 24) as measured by the Albireo PRO instrument. • Percentage of patients achieving a clinically meaningful decrease in pruritus (pruritis responders) as measured by the ObsRO/PRO instruments. • Change from baseline through Week 24 in patient reported and observer reported itching and scratching severity scores, respectively, for the morning assessment and for the evening assessment; sleep parameters as measured with the Albireo ObsRO/PRO instruments (e.g., tiredness and number of awakenings); and PedsQL subdomain scores. • Assessment of Global Symptom Relief to from baseline to Weeks 4, 12, and 24 as measured by patient, caregiver, and clinician Global Impression of Symptoms GIS (PGIS, CaGIS, CGIS) items. • Change from baseline to Week 24 in xanthomatosis as assessed by the Clinician Xanthoma Scale; serum bile acid levels; serum ALT concentration; and serum AST concentration; gamma-glutamyl transferase concentration; total bilirubin concentration. • Change from baseline in biochemical markers and measures of bile acid synthesis (autotaxin, p-C4, only in patients >10 kg); and total cholesterol concentration.
Scores range from 0 and 100, with higher scores indicating better functioning. *n=28 for LS mean change from baseline to week 24. ^†Analysis of change from baseline with odevixibat vs placebo based on ANCOVA model at each visit with baseline score as a covariate and treatment group and age category (<5 years, 5-7 years, 8-12 years, 13-18 years) as fixed effects. ANCOVA=analysis of covariance. LS=least squares. PedsQL=Paediatric Quality of Life Inventory.

[2] = system: patients with Alagille syndrome (ALGS); assay: ASSERT-EXT open-label extension: ObsRO pruritus response; assay type: in vivo, human; conditions: placebo-odevixibat group; weeks 9-12 of ASSERT-EXT; 120 μg/kg/day
Experimental: ASSERT-EXT is a Phase 3, multi-center, open-label extension study designed to evaluate the long-term safety and efficacy of 120 μg/kg/day odevixibat in relieving pruritus in patients with ALGS. Patients who participated in the ASSERT trial (see Example 1) and met eligibility criteria for the ASSERT trial were eligible to participate. The duration of the treatment period is 72 weeks, followed by a 4-week Safety Follow-up Period. Clinic visits occur every 4 to 12 weeks. […]
Day 1 coincided with Week 24 in the ASSERT trial; however, if this was not possible due to logistic issues, patients enrolled in the ASSERT-EXT trial within 28 days of completion of the ASSERT trial. […] Two groups were analyzed up to an interim cut-off date of Sep. […]
Outcomes evaluated include pruritus, serum BAs, sleep, and treatment-emergent adverse events (TEAEs). The Primary Efficacy Endpoint is the change from baseline in scratching through Week 72 as measured by the Albireo ObsRO caregiver instrument.
Itching, Scratching, and Sleep Score. Itching, observed scratching, and sleep disturbance were recorded twice each day via eDiary. […] When logistically feasible, the same parent or caregiver recorded in the eDiary, and changes to the parent or caregiver who is performing the recording should be minimized. […] The caregiver recording in the eDiary was recorded. […]

[3] = system: patients with Alagille syndrome (ALGS); assay: ASSERT pruritus responders: ObsRO scratching score
From the text: Treatment with concomitant medications for pruritus was permitted provided the patient was on a stable dosage for ≥4 weeks prior to enrollment that was maintained throughout the study.
Pruritus responders were defined as patients having a ≥1-point decrease in ObsRO scratching score from baseline to weeks 21-24).

[4] = system: patients with Alagille syndrome (ALGS); assay: ASSERT: hepatic parameters, biochemical markers and markers of bile acid synthesis; assay type: in vivo, human
From the text: as §1
Biochemical Markers and PK Samples. Blood samples for analysis of clinical chemistry were drawn during Screening Visits 1 and 2, as well as at randomization (Study Day 1), Week 4 to 24/EOT, and Safety Follow-up visits. As outlined in Table 1, total bilirubin, AST, ALT, and gamma glutamyl transferase assessments were included as part of the routine laboratory parameters. Blood samples for autotaxin and p-C4 were drawn at randomization (Study Day 1), Week 12, and Week 24/EOT, only for children with body weight >10 kg. Blood for odevixibat PK assessment was drawn at Week 4, Week 20, and EOT (only for children with body weight >10 kg). Samples were processed and transported to a laboratory per instructions in the laboratory manual.

[5] = baseline, before treatment, n=35
[6] = baseline, before treatment, patients >10 kg
[7] = week 24, 120 μg/kg/day, patients >10 kg

With `CCCCC1(CCCC)CN(c2ccccc2)c2cc(SC)c(OCC(=O)N[C@@H](C(=O)N[C@@H](CC)C(=O)O)c3ccc(O)cc3)cc2S(=O)(=O)N1` [odevixibat, 1,1-dioxo-3,3-dibutyl-5-phenyl-7-methylthio-8-(N-{(R)-α-[N-((S)-1-carboxypropyl)carbamoyl]-4-hydroxybenzyl}carbamoylmethoxy)-2,3,4,5-tetrahydro-1,2,5-benzothiadiazepine] the “PedsQL Emotional Functioning, Mean (SD) at baseline” value ([1]; baseline, n=30) was 55.8 (17.8), the “PedsQL Physical Functioning, Mean (SD) at baseline” value ([1]; baseline, n=30) was 71.6 (21.4) and the “PedsQL School Functioning, Mean (SD) at baseline” value ([1]; baseline, n=30) was 63.3 (22.9). For the same compound, the “PedsQL Social Functioning, Mean (SD) at baseline” value ([1]; baseline, n=30) was 78.5 (18.8), the “PedsQL Total Score, Mean (SD) at baseline” value ([1]; baseline, n=30, score 0-100) was 67.8 (16.3) and the “PedsQL Emotional Functioning, LS mean (SE) change from baseline to week 24” value ([1]; n=28) was 21.0 (3.3). The “PedsQL Physical Functioning, LS mean (SE) change from baseline to week 24” value ([1]; n=28) was 14.2 (2.9), the “PedsQL School Functioning, LS mean (SE) change from baseline to week 24” value ([1]; n=28) was 13.3 (3.0) and the “PedsQL Social Functioning, LS mean (SE) change from baseline to week 24” value ([1]; n=28) was 5.1 (3.2). The “PedsQL Total Score, LS mean (SE) change from baseline to week 24” value ([1]; n=28, score 0-100) was 13.5 (2.5), the “patients achieving a pruritus reduction ≥1-point from baseline” value [2] was 70% and the “Scratching score, Mean (SE) Change From Baseline” value ([3]; baseline to weeks 21-24) was −2.0 (0.1). The “Scratching score, Baseline Mean (SE)” value ([3]; n=28) was 2.8 (0.1), the “Scratching score, Week 24 Mean (SE)” value ([3]; weeks 21-24, n=28) was 0.9 (0.1) and the “GGT, LS mean (SE) change from baseline to week 24” value ([4]; 120 μg/kg/day, n=35) was 100 (44) U/L. For the same compound, the “Serum ALT, LS mean (SE) change from baseline to week 24” value ([4]; 120 μg/kg/day, n=35) was 66 (14) U/L, the “Serum AST, LS mean (SE) change from baseline to week 24” value ([4]; 120 μg/kg/day, n=35) was 54 (15) U/L and the “Total bilirubin, LS mean (SE) change from baseline to week 24” value ([4]; 120 μg/kg/day, n=35) was 1 (3) μmol/L. The “Total cholesterol, LS mean (SE) change from baseline to week 24” value ([4]; 120 μg/kg/day, n=35) was −1 (1) mmol/L, the “Autotaxin, Mean (SD) change from baseline to week 24” value ([4]; 120 μg/kg/day, patients >10 kg) was −414 (439) ng/mL and the “C4, Mean (SD) change from baseline to week 24” value ([4]; 120 μg/kg/day, patients >10 kg) was 12 (12) ng/mL. The “GGT, Mean (SD) at baseline” value [4, 5] was 366 (211) U/L, the “Serum ALT, Mean (SD) at baseline” value [4, 5] was 186 (83) U/L and the “Serum AST, Mean (SD) at baseline” value [4, 5] was 170 (81) U/L. The “Total bilirubin, Mean (SD) at baseline” value [4, 5] was 52 (43) μmol/L, the “Total cholesterol, Mean (SD) at baseline” value [4, 5] was 8 (2) mmol/L and the “Autotaxin, Mean (SD) at baseline” value [4, 6] was 1846 (540) ng/mL. For the same compound, the “C4, Mean (SD) at baseline” value [4, 6] was 6 (6) ng/mL, the “patients with post-treatment changes in Total Bilirubin (≥3×BL) concurrently with ALT (≥2×BL) (Hy's Law / drug induced liver injury cases)” value ([4]; post-baseline, 24 weeks) was “No patient” and the “GGT, Mean (SD) at week 24” value ([4]; week 24, 120 μg/kg/day, n=35) was 460 (270) U/L. For the same compound, the “Serum ALT, Mean (SD) at week 24” value ([4]; week 24, 120 μg/kg/day, n=35) was 245 (121) U/L, the “Serum AST, Mean (SD) at week 24” value ([4]; week 24, 120 μg/kg/day, n=35) was 217 (131) U/L and the “Total bilirubin, Mean (SD) at week 24” value ([4]; week 24, 120 μg/kg/day, n=35) was 53 (42) μmol/L. The “Total cholesterol, Mean (SD) at week 24” value ([4]; week 24, 120 μg/kg/day, n=35) was 7 (2) mmol/L, the “Autotaxin, Mean (SD) at week 24” value [4, 7] was 1452 (440) ng/mL and the “C4, Mean (SD) at week 24” value [4, 7] was 19 (13) ng/mL.
